Earlier results in patent US6921754B2, “Compositions containing folic acid and reduced folate” (BASF Aktiengesellschaft, priority 2000, dated 2005).

System: neural tube defects (NTDs) in neonates
Conditions: supplementation of pregnant women with 0.4 to 4 mg of folic acid/day (Hages et al., 1996)

For Nc1nc2ncc(CNc3ccc(C(=O)N[C@@H](CCC(=O)O)C(=O)O)cc3)nc2c(=O)[nH]1 [folic acid, N-[4-(2-Amino-3,4-dihydro-4-oxo-6-pteridinylmethylamino)-benzoyl]-L-glutamic acid], the “decrease in the frequency of abnormalities in newborn infants” value is listed as 50-80%.
